According to ChEMBL document CHEMBL1122939, “N6-cycloalkyladenosines. Potent, A1-selective adenosine agonists” (J Med Chem, 1985):

Experiments:
[1] = Lipophilicity value was evaluated; type: physicochemical; conditions: octanol/water
Adenosine receptor A1 = biological target: T1, Adenosine receptor A1 (Rattus norvegicus, UniProt P25099)
T1 sequence (P25099 whole entry): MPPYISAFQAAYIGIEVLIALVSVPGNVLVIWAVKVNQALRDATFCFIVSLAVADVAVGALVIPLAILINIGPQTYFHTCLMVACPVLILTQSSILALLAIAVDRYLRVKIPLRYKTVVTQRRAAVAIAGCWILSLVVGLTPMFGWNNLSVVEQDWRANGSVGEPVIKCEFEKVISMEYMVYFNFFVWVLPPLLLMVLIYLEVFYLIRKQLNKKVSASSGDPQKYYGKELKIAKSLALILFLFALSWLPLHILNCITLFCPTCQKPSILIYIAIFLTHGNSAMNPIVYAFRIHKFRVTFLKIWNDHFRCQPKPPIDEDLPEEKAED

Adenosine A2 receptor = Adenosine A2 receptor (Rattus norvegicus, UniProt P29276+P30543)
Description: Displacement of [3H]-NECA from adenosine A2 receptor of rat striatal membrane

Row | Log k [1] | Ki (Adenosine receptor A1) [µM] | Ki (Adenosine A2 receptor) [µM] | SMILES
1 | 0.53 | 0.319 | 1.24 | OC[C@H]1O[C@@H](n2cnc3c(NC4CC4)ncnc32)[C@H](O)[C@@H]1O
2 | 2.9 | 0.00403 | 2.45 | OC[C@H]1O[C@@H](n2cnc3c(NC4CCCCCCC4)ncnc32)[C@H](O)[C@@H]1O
3 | 2.4 | 0.00279 | 1.69 | OC[C@H]1O[C@@H](n2cnc3c(NC4CCCCCC4)ncnc32)[C@H](O)[C@@H]1O
4 | – | 0.00874 | – | Nc1nc(Cl)nc2c1ncn2[C@@H]1O[C@H](CO)[C@@H](O)[C@H]1O
5 | 1.6 | – | – | OC[C@H]1O[C@@H](n2cnc3c(NC4CCCCC4)ncnc32)[C@H](O)[C@@H]1O
6 | 1.22 | 0.000777 | 0.263 | OC[C@H]1O[C@@H](n2cnc3c(NC4CCC4)ncnc32)[C@H](O)[C@@H]1O
7 | 3.62 | 0.1 | 5.19 | OC[C@H]1OC(n2cnc3c(NC4CCCCCCCCC4)ncnc32)[C@H](O)[C@@H]1O (some centres undefined)
8 | 4.52 | 5.39 | 47.7 | OC[C@H]1OC(n2cnc3c(NC4CCCCCCCCCCC4)ncnc32)[C@H](O)[C@@H]1O (some centres undefined)
9 | – | 0.144 | 3.25 | Cn1c(=O)[nH]c2c(ncn2C2O[C@H](CO)[C@@H](O)[C@H]2O)c1=N (some centres undefined)
10 | 1.56 | – | 0.462 | OC[C@H]1O[C@@H](n2cnc3c(NC4CCCC4)ncnc32)[C@H](O)[C@@H]1O [N6-CYCLOPENTYLADENOSINE]
